Measured values as given in ChEMBL document CHEMBL1201862, “PubChem BioAssay data set” (2004).
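Interpolation was linear, between the two tested concentrations surrounding the appropriate level; five concentrations were tested over 48 hours in 96-well plates. Here, GI50 denotes the concentration required for 50% inhibition of growth.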 The source made the active and inactive calls. Rule as the data show it: active = GI50 up to about 1.1 µM and inactive = higher.

How the values were obtained:
Assay in all cases: DTP human tumour cell line panel, 48 h
[1] = tested on: NCI-H460
[2] = tested on: SN12C
[3] = tested on: NCI-H522
[4] = tested on: HCT-15
[5] = tested on: MOLT-4
[6] = tested on: IGROV-1
[7] = tested on: HOP-62
[8] = tested on: LOX IMVI
[9] = tested on: NCI-H226
[10] = tested on: MDA-MB-231
[11] = tested on: SK-MEL-5
[12] = tested on: SK-MEL-2
[13] = tested on: OVCAR-8
[14] = tested on: OVCAR-4
[15] = tested on: COLO 205
[16] = tested on: SF-268
[17] = tested on: Malme-3M
[18] = tested on: BT-549
[19] = tested on: TK-10
[20] = tested on: CCRF-CEM
[21] = tested on: 786-0
[22] = tested on: RXF 393
[23] = tested on: PC-3
[24] = tested on: K562
[25] = tested on: ACHN
[26] = tested on: EKVX
[27] = tested on: SR
[28] = tested on: T47D
[29] = tested on: HCC 2998
[30] = tested on: KM12
[31] = tested on: SNB-75
[32] = tested on: A549
[33] = tested on: DU-145
[34] = tested on: SK-MEL-28
[35] = tested on: HCT-116
[36] = tested on: HL-60
[37] = tested on: MDA-MB-435
[38] = tested on: SK-OV-3
[39] = tested on: UACC-257
[40] = tested on: Hs-578T
[41] = tested on: MCF7
[42] = tested on: UACC-62
[43] = tested on: A498
[44] = tested on: SF-295
[45] = tested on: CAKI-1
[46] = tested on: MDA-N
[47] = tested on: SNB-19
[48] = tested on: U-251
[49] = tested on: SW-620
[50] = tested on: OVCAR-3
[51] = tested on: RPMI-8226
[52] = tested on: OVCAR-5
[53] = tested on: UO-31
[54] = tested on: NCI-H23
[55] = tested on: M14
[56] = tested on: NCI/ADR-RES
[57] = tested on: HT-29
[58] = tested on: HOP-92
[59] = tested on: SF-539

In the case of `CCOC(=O)N1CC2(C)C=CC1C(C(=O)OC)C2` (stereo unspecified), the GI50 [1] is reported as > 100 µM (inactive), the GI50 [2] is reported as > 100 µM (inactive) and the GI50 [3] is reported as > 100 µM (inactive). The GI50 [4] was greater than 100 µM, the GI50 [5] was > 100 µM (inactive) and the GI50 [6] was > 100 µM (inactive). The GI50 [7] was > 100 µM (inactive), the GI50 [8] was > 100 µM (inactive) and the GI50 [9] was 69.8 µM (inactive). For the same compound, the GI50 [10] was > 100 µM (inactive), the GI50 [11] was > 100 µM (inactive) and the GI50 [12] was > 100 µM (inactive). The GI50 [13] was > 100 µM (inactive), the GI50 [14] was > 100 µM (inactive) and the GI50 [15] was > 100 µM (inactive). The GI50 [16] was > 100 µM (inactive), the GI50 [17] was > 100 µM (inactive) and the GI50 [18] was > 100 µM (inactive). For the same compound, the GI50 [19] was > 100 µM (inactive), the GI50 [20] was > 100 µM (inactive) and the GI50 [21] was > 100 µM (inactive). The GI50 [22] was > 100 µM (inactive), the GI50 [23] was > 100 µM (inactive) and the GI50 [24] was > 100 µM (inactive). For the same compound, the GI50 [25] was > 100 µM (inactive), the GI50 [26] was > 100 µM (inactive) and the GI50 [27] was > 100 µM (inactive). The GI50 [28] was > 100 µM (inactive), the GI50 [29] was > 100 µM (inactive) and the GI50 [30] was > 100 µM (inactive). For the same compound, the GI50 [31] was > 100 µM (inactive), the GI50 [32] was > 100 µM (inactive) and the GI50 [33] was > 100 µM (inactive). The GI50 [34] was > 100 µM (inactive), the GI50 [35] was > 100 µM (inactive) and the GI50 [36] was > 100 µM (inactive). The GI50 [37] was > 100 µM (inactive), the GI50 [38] was > 100 µM (inactive) and the GI50 [39] was > 100 µM (inactive). For the same compound, the GI50 [40] was > 100 µM (inactive), the GI50 [41] was > 100 µM (inactive) and the GI50 [42] was > 100 µM (inactive). For the same compound, the GI50 [43] was > 100 µM (inactive), the GI50 [44] was > 100 µM (inactive) and the GI50 [45] was > 100 µM (inactive). The GI50 [46] was > 100 µM (inactive), the GI50 [47] was > 100 µM (inactive) and the GI50 [48] was > 100 µM (inactive). The GI50 [49] was > 100 µM (inactive), the GI50 [50] was > 100 µM (inactive) and the GI50 [51] was > 100 µM (inactive). For the same compound, the GI50 [52] was > 100 µM (inactive), the GI50 [53] was > 100 µM (inactive) and the GI50 [54] was > 100 µM (inactive). The GI50 [55] was > 100 µM (inactive), the GI50 [56] was > 100 µM (inactive) and the GI50 [57] was > 100 µM (inactive).

`C/C(=N/c1[nH]c(=O)cc2c1C(=O)CC2)N(C)C` was tested, and the GI50 [1] was > 200 µM (inactive), the GI50 [2] was > 200 µM (inactive) and the GI50 [3] was > 200 µM (inactive). For the same compound, the GI50 [4] was greater than 200 µM, the GI50 [5] was > 200 µM (inactive) and the GI50 [6] was > 200 µM (inactive). For the same compound, the GI50 [7] was > 200 µM (inactive), the GI50 [8] was > 200 µM (inactive) and the GI50 [9] was > 200 µM (inactive). The GI50 [10] was > 200 µM (inactive), the GI50 [11] was > 200 µM (inactive) and the GI50 [12] was > 200 µM (inactive). The GI50 [13] was > 200 µM (inactive), the GI50 [14] was > 200 µM (inactive) and the GI50 [58] was > 200 µM (inactive). The GI50 [15] was > 200 µM (inactive), the GI50 [16] was > 200 µM (inactive) and the GI50 [17] was > 200 µM (inactive). For the same compound, the GI50 [59] was > 200 µM (inactive), the GI50 [18] was > 200 µM (inactive) and the GI50 [19] was > 200 µM (inactive). The GI50 [20] was > 200 µM (inactive), the GI50 [21] was > 200 µM (inactive) and the GI50 [22] was > 200 µM (inactive). For the same compound, the GI50 [23] was > 200 µM (inactive), the GI50 [24] was > 200 µM (inactive) and the GI50 [25] was > 200 µM (inactive). For the same compound, the GI50 [26] was > 200 µM (inactive), the GI50 [28] was > 200 µM (inactive) and the GI50 [29] was > 200 µM (inactive). The GI50 [30] was > 200 µM (inactive), the GI50 [31] was > 200 µM (inactive) and the GI50 [32] was > 200 µM (inactive). For the same compound, the GI50 [33] was > 200 µM (inactive), the GI50 [34] was > 200 µM (inactive) and the GI50 [35] was > 200 µM (inactive). The GI50 [36] was > 200 µM (inactive), the GI50 [37] was > 200 µM (inactive) and the GI50 [38] was > 200 µM (inactive). For the same compound, the GI50 [39] was > 200 µM (inactive), the GI50 [40] was > 200 µM (inactive) and the GI50 [41] was > 200 µM (inactive). For the same compound, the GI50 [42] was > 200 µM (inactive), the GI50 [43] was > 200 µM (inactive) and the GI50 [44] was > 200 µM (inactive). For the same compound, the GI50 [45] was > 200 µM (inactive), the GI50 [46] was > 200 µM (inactive) and the GI50 [47] was > 200 µM (inactive). The GI50 [48] was > 200 µM (inactive), the GI50 [49] was > 200 µM (inactive) and the GI50 [50] was > 200 µM (inactive). For the same compound, the GI50 [51] was > 200 µM (inactive), the GI50 [52] was > 200 µM (inactive) and the GI50 [53] was > 200 µM (inactive). The GI50 [54] was > 200 µM (inactive), the GI50 [55] was > 200 µM (inactive) and the GI50 [56] was > 200 µM (inactive). The GI50 [57] was > 200 µM (inactive).

`Cc1nn(C(=O)c2ccccc2O)c2c1C(c1ccccc1)SC(=N)N2` (stereo unspecified) was tested, and the GI50 [1] was 3.64 µM (inactive), the GI50 [2] was 2.25 µM (inactive) and the GI50 [3] was 3.19 µM (inactive). For the same compound, the GI50 [4] was 3.86 µM, the GI50 [5] was 2.75 µM (inactive) and the GI50 [6] was 0.481 µM (active). For the same compound, the GI50 [7] was 2.64 µM (inactive), the GI50 [8] was 3.1 µM (inactive) and the GI50 [9] was 1.16 µM (inactive). For the same compound, the GI50 [10] was 0.811 µM (active), the GI50 [11] was 3.19 µM (inactive) and the GI50 [12] was 3.58 µM (inactive). For the same compound, the GI50 [13] was 0.867 µM (active), the GI50 [14] was 1.49 µM (inactive) and the GI50 [15] was 3.87 µM (inactive). The GI50 [16] was 3.27 µM (inactive), the GI50 [17] was 0.479 µM (active) and the GI50 [59] was 0.214 µM (active). The GI50 [18] was > 10 µM (inactive), the GI50 [19] was 0.897 µM (active) and the GI50 [20] was 2.36 µM (inactive). For the same compound, the GI50 [21] was 1.57 µM (inactive), the GI50 [22] was > 10 µM (inactive) and the GI50 [23] was 4.57 µM (inactive). For the same compound, the GI50 [24] was 0.413 µM (active), the GI50 [25] was 0.419 µM (active) and the GI50 [26] was > 10 µM (inactive). For the same compound, the GI50 [27] was 2.42 µM (inactive), the GI50 [28] was 5.43 µM (inactive) and the GI50 [29] was 7.69 µM (inactive). The GI50 [30] was 3.53 µM (inactive), the GI50 [31] was 0.311 µM (active) and the GI50 [32] was 0.6 µM (active). For the same compound, the GI50 [33] was 0.627 µM (active), the GI50 [34] was > 10 µM (inactive) and the GI50 [35] was 0.906 µM (active). For the same compound, the GI50 [36] was 1.61 µM (inactive), the GI50 [37] was 0.416 µM (active) and the GI50 [38] was 5.6 µM (inactive). For the same compound, the GI50 [39] was 2.01 µM (inactive), the GI50 [40] was 0.7 µM (active) and the GI50 [41] was 2.81 µM (inactive). The GI50 [42] was 0.44 µM (active), the GI50 [44] was 3.74 µM (inactive) and the GI50 [45] was 0.547 µM (active). The GI50 [46] was 1.2 µM (inactive), the GI50 [47] was 6.38 µM (inactive) and the GI50 [48] was 2.11 µM (inactive). The GI50 [49] was 3.58 µM (inactive), the GI50 [50] was 1.79 µM (inactive) and the GI50 [51] was 2.97 µM (inactive). For the same compound, the GI50 [52] was 6.08 µM (inactive), the GI50 [54] was 0.836 µM (active) and the GI50 [55] was 1.69 µM (inactive). The GI50 [56] was 1.56 µM (inactive) and the GI50 [57] was 5.38 µM (inactive).
